Test system: SNU16 cells
Assay: SNU16 Cancer Cell Line Proliferation Assay
Format: cell-based
Conditions: Homo sapiens; SNU-16 cells
Protocol: Compounds of the present invention were also tested in a SNU16 Cancer Cell Line Proliferation Assay, Test compounds were prepared in a 10 mM DMSO stock solution. 45 uL of stock solution was transferred to a 384 well plate, and a 3-fold 11-point dolution was performed. SNU16 cells in a 384 well cell culture plate were seeded and incubated at 37 degrees for 24 hours. 40 nL of each concentration of compound was transferred from the compound plate to a corresponding well in the cell culture plate by Echo550 liquid handler. The plates were incubated for 96 hours, then equilibrated to room temperature for 15 minutes. 20 uL of CellTiter Glo reagent is added into each well, then the plate was shaken gently for 30 minutes at room temperature. Chemiluminescence was then read on an EnVision reader.

Compound | IC50
C/C=C/C(=O)N1CC(n2cc(-c3c(-c4ccc(Oc5cccc(C)n5)cc4)c4c(N)ncnc4n3C)cn2)C1 [Example 639] | ≤ 100 nM
C/C=C/C(=O)Nc1ccc(-c2c(-c3ccc(Oc4cccc(C)n4)c(OC)c3)c3c(N)ncnc3n2C)cc1 [Example 31] | ≤ 100 nM
CC#CC(=O)N1CCC(n2cc(-c3c(-c4ccc(Oc5cccc(C)n5)cc4)c4c(N)ncnc4n3C)cn2)C1 (centres unmarked) [Example 635] | ≤ 100 nM
C=CC(=O)N1CC[C@H](c2[nH]c3ncnc(N)c3c2-c2ccc(Oc3ncccn3)cc2)C1 [Example 730] | 1000 to 100000 nM
C=CC(=O)N1CCC(c2c(-c3ccc(C4CCOCC4)cc3)c3c(N)ncnc3n2C)C1 (centres unmarked) [Example 751] | 100 to 250 nM
C=CC(=O)N1CCC(c2c(-c3ccc(CN4CCC(C)(C)C4)cc3)c3c(N)ncnc3n2C)C1 (centres unmarked) [Example 753] | 1000 to 100000 nM
C=CC(=O)N1CC[C@@H](c2[nH]c3ncnc(N)c3c2-c2ccc(Oc3cccc(C)n3)cc2)C1 (single isomer, unassigned) [Example 752] | ≤ 100 nM
C=C(C)C(=O)Nc1ccc(-c2c(-c3ccc(Oc4cccc(C)n4)cc3)c3c(N)ncnc3n2C)cc1F [Example 340] | ≤ 100 nM
C=C(C)C(=O)Nc1ccc(-c2c(-c3ccc(Oc4nccc(C)n4)c(F)c3F)c3c(N)ncnc3n2C)cc1 [Example 552] | ≤ 100 nM
C=C(C)C(=O)Nc1ccc(-c2[nH]c3ncnc(N)c3c2-c2ccc(Oc3cccc(C)n3)cc2)cc1 [Example 703] | ≤ 100 nM
C=CC(=O)N1CCC(c2c(-c3cnn(C4CNC4)c3)c3c(N)ncnc3n2C)C1 (centres unmarked) [Example 793] | 1000 to 100000 nM
C=C(C)C(=O)Nc1ccc(-c2c(-c3ccc(Oc4ncc(F)cn4)c(C)c3)c3c(N)ncnc3n2C)c(F)c1 [Example 424] | ≤ 100 nM
C=C(C)C(=O)Nc1ccc(-c2cn3ncnc(N)c3c2-c2ccc(Oc3cccc(C)n3)cc2)cc1 [Example 795] | 1000 to 100000 nM
C=C(C)C(=O)Nc1ccc(-c2c(-c3ccc(Oc4nccc(C)n4)c(F)c3)c3c(N)ncnc3n2C(C)C)cc1 [Example 499] | ≤ 100 nM

Results, then the molecule that gave them:

IC50 | Compound
≤ 100 nM | C=C(C)C(=O)Nc1ccc(-c2c(-c3ccc(C(=O)N4CCC5CC54)cc3)c3c(N)ncnc3n2C)cc1 (centres unmarked) [Example 229]
≤ 100 nM | C=CC(=O)Nc1ccc(-c2c(-c3ccc(Oc4cccc(C)n4)cc3)c3c(N)ncnc3n2C)cc1OC [Example 14]
250 to 1000 nM | C=C(C)C(=O)Nc1ccc(-c2c(-c3ccc(Oc4cccc(C)n4)nc3)c3c(N)ncnc3n2C)cc1 [Example 441]
250 to 1000 nM | C=C(C)C(=O)Nc1ccc(-c2c(-c3ccc(C(=O)Nc4ncccn4)cc3)c3c(N)ncnc3n2C)cc1 [Example 257]
≤ 100 nM | C=CC(=O)N1CC=C(c2c(-c3ccc(Oc4ccccn4)cc3)c3c(N)ncnc3n2C)CC1 [Example 681]
≤ 100 nM | C=CC(=O)Nc1ccc(-c2c(-c3ccc(Oc4ncc(C(F)F)cn4)c(OC)c3)c3c(N)ncnc3n2C)cc1 [Example 113]
250 to 1000 nM | C=CC(=O)N1CCC(c2c(-c3ccc(COC)cc3)c3c(N)ncnc3n2C)C1 (centres unmarked) [Example 721]
≤ 100 nM | C=CC(=O)Nc1ccc(-c2c(C3=CCC(C(=O)NC)CC3)c3c(N)ncnc3n2C)cc1 (centres unmarked) [Example 148]
≤ 100 nM | C=C(C)C(=O)Nc1ccc(-c2c(-c3ccc(C(=O)NCC(C)C)cc3)c3c(N)ncnc3n2C)cc1 [Example 307]
250 to 1000 nM | C=C(C)C(=O)Nc1ccc(-c2c(-c3ccc(C(=O)N(C)Cc4noc(C)n4)cc3)c3c(N)ncnc3n2C)cc1 [Example 375]
250 to 1000 nM | C=CC(=O)N1CCC(c2c(-c3ccc(C(=O)N4CCSC4)cc3)c3c(N)ncnc3n2C)C1 (centres unmarked) [Example 731]
100 to 250 nM | C=C(C)C(=O)Nc1ccc(-c2c(-c3ccc(C(=O)N4CC5CCCCC5C4)cc3)c3c(N)ncnc3n2C)cc1 (centres unmarked) [Example 246]
1000 to 100000 nM | C=CC(=O)N1CCC(c2c(-c3ccc(C4CCC(=O)N4)cc3)c3c(N)ncnc3n2C)C1 (centres unmarked) [Example 762]
100 to 250 nM | C=CC(=O)NC1CC=C(c2c(-c3ccc(Oc4cccc(C)n4)c(OC)c3)c3c(N)ncnc3n2C)CC1 (centres unmarked) [Example 623]

Target: FGFR2 (Homo sapiens (Human), UniProt P21802)
Sequence (P21802 22-821): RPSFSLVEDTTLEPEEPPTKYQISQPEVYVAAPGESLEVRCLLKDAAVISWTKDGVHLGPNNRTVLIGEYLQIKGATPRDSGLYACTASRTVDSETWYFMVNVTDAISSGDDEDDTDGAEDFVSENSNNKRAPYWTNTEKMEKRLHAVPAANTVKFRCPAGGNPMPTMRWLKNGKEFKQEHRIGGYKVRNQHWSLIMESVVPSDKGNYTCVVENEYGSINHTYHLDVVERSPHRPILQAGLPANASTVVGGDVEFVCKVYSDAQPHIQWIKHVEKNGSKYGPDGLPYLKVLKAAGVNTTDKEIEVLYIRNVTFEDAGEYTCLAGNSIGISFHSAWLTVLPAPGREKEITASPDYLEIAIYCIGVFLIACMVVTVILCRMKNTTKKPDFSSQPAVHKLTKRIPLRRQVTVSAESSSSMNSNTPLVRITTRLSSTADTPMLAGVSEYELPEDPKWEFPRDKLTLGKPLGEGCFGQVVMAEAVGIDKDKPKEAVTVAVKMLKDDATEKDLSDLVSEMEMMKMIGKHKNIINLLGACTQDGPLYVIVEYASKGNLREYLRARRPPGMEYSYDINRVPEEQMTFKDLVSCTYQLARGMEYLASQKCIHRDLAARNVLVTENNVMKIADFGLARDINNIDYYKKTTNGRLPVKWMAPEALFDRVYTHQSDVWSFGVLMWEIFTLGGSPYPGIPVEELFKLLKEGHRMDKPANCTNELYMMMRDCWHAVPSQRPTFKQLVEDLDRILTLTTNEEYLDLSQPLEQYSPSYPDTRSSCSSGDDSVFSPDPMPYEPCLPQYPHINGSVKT
Assay: FGFR2 Biochemical Caliper Assay
Conditions: not given
Protocol: Compounds of the present invention were also tested in a FGFR2 Biochemical Caliper Assay. Compounds were prepared in 10 mM DMSO solution and serially diluted into 11 concentrations by 3-fold dilution. […] 5 uL of ATP solution (100 uM) was added to start the reaction and the plate was incubated for 90 minutes, then 70 uL of stopping buffer (0.5M EDTA) was added to terminate the reaction. Each well was analyzed using EZ reader.

Compound | IC50
C/C=C/C(=O)N1CC(n2cc(-c3c(-c4ccc(Oc5cccc(C)n5)cc4)c4c(N)ncnc4n3C)cn2)C1 [Example 639] | < 100 nM
C/C=C/C(=O)Nc1ccc(-c2c(-c3ccc(Oc4cccc(C)n4)c(OC)c3)c3c(N)ncnc3n2C)cc1 [Example 31] | < 100 nM
CC#CC(=O)N1CCC(n2cc(-c3c(-c4ccc(Oc5cccc(C)n5)cc4)c4c(N)ncnc4n3C)cn2)C1 (centres unmarked) [Example 635] | 100 to 250 nM
C=CC(=O)N1CC[C@H](c2[nH]c3ncnc(N)c3c2-c2ccc(Oc3ncccn3)cc2)C1 [Example 730] | 250 to 1000 nM
C=CC(=O)N1CCC(c2c(-c3ccc(C4CCOCC4)cc3)c3c(N)ncnc3n2C)C1 (centres unmarked) [Example 751] | 250 to 1000 nM
C=CC(=O)N1CCC(c2c(-c3ccc(CN4CCC(C)(C)C4)cc3)c3c(N)ncnc3n2C)C1 (centres unmarked) [Example 753] | 1000 to 100000 nM
C=CC(=O)N1CC[C@@H](c2[nH]c3ncnc(N)c3c2-c2ccc(Oc3cccc(C)n3)cc2)C1 (single isomer, unassigned) [Example 752] | < 100 nM
C=C(C)C(=O)Nc1ccc(-c2c(-c3ccc(Oc4cccc(C)n4)cc3)c3c(N)ncnc3n2C)cc1F [Example 340] | < 100 nM
C=C(C)C(=O)Nc1ccc(-c2c(-c3ccc(Oc4nccc(C)n4)c(F)c3F)c3c(N)ncnc3n2C)cc1 [Example 552] | < 100 nM
C=C(C)C(=O)Nc1ccc(-c2[nH]c3ncnc(N)c3c2-c2ccc(Oc3cccc(C)n3)cc2)cc1 [Example 703] | < 100 nM
C=CC(=O)N1CCC(c2c(-c3cnn(C4CNC4)c3)c3c(N)ncnc3n2C)C1 (centres unmarked) [Example 793] | 250 to 1000 nM
C=C(C)C(=O)Nc1ccc(-c2c(-c3ccc(Oc4ncc(F)cn4)c(C)c3)c3c(N)ncnc3n2C)c(F)c1 [Example 424] | < 100 nM
C=C(C)C(=O)Nc1ccc(-c2cn3ncnc(N)c3c2-c2ccc(Oc3cccc(C)n3)cc2)cc1 [Example 795] | 1000 to 100000 nM
C=C(C)C(=O)Nc1ccc(-c2c(-c3ccc(Oc4nccc(C)n4)c(F)c3)c3c(N)ncnc3n2C(C)C)cc1 [Example 499] | < 100 nM

Other lines, results leading:

IC50 | Compound
< 100 nM | C=C(C)C(=O)Nc1ccc(-c2c(-c3ccc(C(=O)N4CCC5CC54)cc3)c3c(N)ncnc3n2C)cc1 (centres unmarked) [Example 229]
< 100 nM | C=CC(=O)Nc1ccc(-c2c(-c3ccc(Oc4cccc(C)n4)cc3)c3c(N)ncnc3n2C)cc1OC [Example 14]
250 to 1000 nM | C=C(C)C(=O)Nc1ccc(-c2c(-c3ccc(Oc4cccc(C)n4)nc3)c3c(N)ncnc3n2C)cc1 [Example 441]
250 to 1000 nM | C=C(C)C(=O)Nc1ccc(-c2c(-c3ccc(C(=O)Nc4ncccn4)cc3)c3c(N)ncnc3n2C)cc1 [Example 257]
< 100 nM | C=CC(=O)N1CC=C(c2c(-c3ccc(Oc4ccccn4)cc3)c3c(N)ncnc3n2C)CC1 [Example 681]
< 100 nM | C=CC(=O)Nc1ccc(-c2c(-c3ccc(Oc4ncc(C(F)F)cn4)c(OC)c3)c3c(N)ncnc3n2C)cc1 [Example 113]
250 to 1000 nM | C=CC(=O)N1CCC(c2c(-c3ccc(COC)cc3)c3c(N)ncnc3n2C)C1 (centres unmarked) [Example 721]
< 100 nM | C=CC(=O)Nc1ccc(-c2c(C3=CCC(C(=O)NC)CC3)c3c(N)ncnc3n2C)cc1 (centres unmarked) [Example 148]
< 100 nM | C=C(C)C(=O)Nc1ccc(-c2c(-c3ccc(C(=O)NCC(C)C)cc3)c3c(N)ncnc3n2C)cc1 [Example 307]
250 to 1000 nM | C=C(C)C(=O)Nc1ccc(-c2c(-c3ccc(C(=O)N(C)Cc4noc(C)n4)cc3)c3c(N)ncnc3n2C)cc1 [Example 375]
250 to 1000 nM | C=CC(=O)N1CCC(c2c(-c3ccc(C(=O)N4CCSC4)cc3)c3c(N)ncnc3n2C)C1 (centres unmarked) [Example 731]
250 to 1000 nM | C=C(C)C(=O)Nc1ccc(-c2c(-c3ccc(C(=O)N4CC5CCCCC5C4)cc3)c3c(N)ncnc3n2C)cc1 (centres unmarked) [Example 246]
1000 to 100000 nM | C=CC(=O)N1CCC(c2c(-c3ccc(C4CCC(=O)N4)cc3)c3c(N)ncnc3n2C)C1 (centres unmarked) [Example 762]
100 to 250 nM | C=CC(=O)NC1CC=C(c2c(-c3ccc(Oc4cccc(C)n4)c(OC)c3)c3c(N)ncnc3n2C)CC1 (centres unmarked) [Example 623]

Reference: patent US11780845B2 (Relay Therapeutics, Inc., priority 2019, dated 2023)
